Test [1] has as its target T1, human prolyl-tRNA synthetase (ProRS domain of GluProRS) (Homo sapiens, UniProt P07814).
T1 construct: gene EPRS1; recombinant human ProRS
T1 sequence (P07814 998-1512): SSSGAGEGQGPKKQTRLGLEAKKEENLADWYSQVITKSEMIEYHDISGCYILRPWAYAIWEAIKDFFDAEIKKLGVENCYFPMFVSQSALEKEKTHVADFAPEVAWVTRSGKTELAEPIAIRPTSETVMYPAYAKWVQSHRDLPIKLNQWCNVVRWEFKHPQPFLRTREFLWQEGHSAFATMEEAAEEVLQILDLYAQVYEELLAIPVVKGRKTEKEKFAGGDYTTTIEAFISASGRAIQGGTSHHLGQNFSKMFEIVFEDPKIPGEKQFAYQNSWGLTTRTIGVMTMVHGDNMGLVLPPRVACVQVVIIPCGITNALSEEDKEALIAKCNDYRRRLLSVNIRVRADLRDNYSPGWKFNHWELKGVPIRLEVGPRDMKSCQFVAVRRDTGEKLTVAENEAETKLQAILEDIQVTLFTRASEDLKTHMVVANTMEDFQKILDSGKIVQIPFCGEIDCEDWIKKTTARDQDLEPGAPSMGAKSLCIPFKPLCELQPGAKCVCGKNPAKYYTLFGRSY
The experiment in a line: TR-FRET ligand displacement with […] ATP. It counts as binding. For orientation: TR-FRET usually uses a lanthanide donor and a delayed reading to cut background.

Test [2] deals with T1, human prolyl-tRNA synthetase (ProRS domain of GluProRS). The experiment in a line: TR-FRET ligand displacement with […] proline; crystal structure with proline. Format: binding.

Each structure is given as a SMILES string. pKd: −log10 of the molar value.

On to `O=C(CC1NCCCC1O)Cn1cnc2cc(Br)c(Cl)cc2c1=O` (centres unmarked) [HFG, Halofuginone], for which the pKd – broadly, the Kd on a negative log10 scale, so that one unit is a factor of ten – in test [1] is 9.72.
`O=C(NC1Cc2ccccc2C1)c1nccnc1NC(=O)N1CCCCC1` [NCP26] gave a negative-log Kd (pKd) in test [2] of 9.46.
